{
  "source": "patent US12492195B2",
  "about": "“Preparation method for and crystal form of 3-aryloxy-3-five-membered heteroaryl-propylamine compound” (Zhangzhou Pien Tze Huang Pharmaceutical Co., Ltd., priority 2020, dated 2025)",
  "key": {"[1]": {"experiment": "Solubility of free compound Ic-1 in different solvents", "assay_type": "physicochemical", "settings": "thermodynamic from solid, room temperature", "protocol": "The free base of the compound of formula Ic-1 was used as the starting material to obtain other salt forms. The free base of the compound of formula Ic-1 was an oily substance, and the solubility of the free base of the compound of formula Ic-1 in 11 common solvents was tested at room temperature. In the experiment, about 2 mg of compound Ic-1 oily sample was weighed into a 3-ml vial, and then the corresponding solvent was gradually added (50, 50, 200, 700 μLL) and shaken until the solution was clear. If the sample was still not dissolved after adding the solvent to 1 ml, the solvent was not added any more. The rough solubility range calculated according to the mass of the solid sample, the volume of the added solvent and the observed dissolution phenomenon was shown in Table 8."}, "TRPV1": {"molecular_target": "T1, TRPV1 (Homo sapiens, UniProt Q8NER1)", "T1 construct": "expressed in transfected cells", "T1 sequence (Q8NER1 whole entry, species assumed)": "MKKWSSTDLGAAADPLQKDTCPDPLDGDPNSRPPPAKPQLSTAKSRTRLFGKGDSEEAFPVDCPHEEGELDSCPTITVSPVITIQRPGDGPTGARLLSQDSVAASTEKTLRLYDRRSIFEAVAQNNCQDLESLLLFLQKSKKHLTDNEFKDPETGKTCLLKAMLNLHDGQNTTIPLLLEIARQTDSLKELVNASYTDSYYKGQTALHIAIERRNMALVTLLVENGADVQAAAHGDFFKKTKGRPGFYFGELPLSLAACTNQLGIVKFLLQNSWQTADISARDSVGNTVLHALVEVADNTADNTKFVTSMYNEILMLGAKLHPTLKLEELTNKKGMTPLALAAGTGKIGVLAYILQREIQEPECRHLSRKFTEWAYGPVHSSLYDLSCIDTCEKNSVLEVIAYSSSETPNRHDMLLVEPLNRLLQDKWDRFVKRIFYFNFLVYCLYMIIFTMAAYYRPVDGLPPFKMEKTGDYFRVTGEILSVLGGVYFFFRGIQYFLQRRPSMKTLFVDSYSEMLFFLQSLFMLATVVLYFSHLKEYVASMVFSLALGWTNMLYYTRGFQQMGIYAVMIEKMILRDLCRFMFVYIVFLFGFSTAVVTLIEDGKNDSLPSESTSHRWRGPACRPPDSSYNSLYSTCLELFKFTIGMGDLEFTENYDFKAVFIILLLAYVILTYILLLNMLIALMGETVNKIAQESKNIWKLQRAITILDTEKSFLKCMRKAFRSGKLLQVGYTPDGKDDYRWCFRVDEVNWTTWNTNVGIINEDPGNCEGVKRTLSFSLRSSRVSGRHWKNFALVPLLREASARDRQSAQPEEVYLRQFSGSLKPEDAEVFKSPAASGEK", "experiment": "Manual patch clamp detection on TRPV1 channel", "assay_type": "cell-based", "settings": "HEK293, Capsaicin-induced current", "protocol": "TRPV1 cells were cultured in a cell culture dish with a diameter of 35 mm, placed in a 37° C., 5% CO2 incubator, and passaged at a ratio of 1:5 every 48 hours. Medium formula: 90% DMEM (Invitrogen), 10% Fetal bovine serum (Gibco). 2 mM L-glutamine, 50 μg/mL Hygromycin B (Invitrogen) and 5 μg/mL Blasticidine HCl (Invitrogen). Before electrophysiological patch clamp experiments, the cell culture medium was replaced with medium containing 1 μg/mL Doxycycline for at least 16 hours to induce the expression of TRPV1.\nOn the day of the experiment, the cell culture medium was aspirated, the cell were rinsed once with extracellular fluid, and then 0.25% Trypsin-EDTA (Invitrogen) solution was added, and digested at room temperature for 1-2 minutes. The digestion solution was aspirated, the cell were resuspended with extracellular fluid, and transferred to the experimental dish for electrophysiological recording for further experiment. […]\nHEK293 cells stably expressing TRP channels, the corresponding agonist-induced channel current was recorded by whole-cell patch clamp technique at room temperature. […] Clamp voltages and data recording were controlled and recorded by a computer using pClamp 11 software with the sampling frequency of 10 kHz and the filtering frequency of 2 kHz. […] After the current was evoked for more than 40 s and no attenuation was determined, the dosing process started. […]"}, "SD rats": {"system": "SD rats", "experiment": "SNL model in rats, mechanical hyperalgesia test", "assay_type": "in vivo", "settings": "10 mg/kg by gavage, 1 hour after administration", "protocol": "Male SPF grade SD rats, weighed 150-180 g, were selected. Aseptic operation during surgery was performed. The animals were anesthetized with sodium pentobarbital (50 mg/kg, intraperitoneal injection). The surgical area of animal waist was shaved and the skin was disinfected three times with iodophor and 70% ethanol. After the skin was dried, the operation was started. Surgical knife was used to make a longitudinal incision at the back of the sacrum of the animal waist to expose the left paraspinal muscles, and distractor was used to separate muscle tissue to expose the spine. The left spinal nerves L5 and L6 were separated and ligated with a 6-0 silk thread, and the wound was sutured. […]\nThe animals were weighed to calculate the dosage. […] During the test, rapid paw withdrawal of animal was recorded as pain response. When the test fiber was removed from animal skin, the paw withdrawal of animal was also recorded as pain response. If animal moved or walked, the pain response was not recorded and the test was repeated. […]\nMechanical hyperalgesia was expressed as paw withdrawal threshold (PWT) in rat behavioral test, which was calculated with the following formula: 50% response threshold (g)=(10^(Xf+k))/10,000; • Xf=the final test fiber value used in the test; • k=table value; • =mean difference"}},
  "data": [
    {"compound": "CNCC[C@H](Oc1cccc2ccoc12)c1cccs1", "note": "[IC-1, (S)-3-(Benzofuran-7-yloxy)-N-methyl-3-(thiophen-2-yl)propan-1-amine]", "values": [
      {"measurement": "solubility", "setting": "[1]; aqueous with cosolvent or surfactant or cyclodextrin, Methanol:Water (1:1)", "result": "> 38", "unit": "mg/mL"},
      {"measurement": "solubility", "setting": "[1]; organic solvent or mixture, Acetone", "result": "> 46", "unit": "mg/mL"},
      {"measurement": "solubility", "setting": "[1]; organic solvent or mixture, Acetonitrile", "result": "> 54", "unit": "mg/mL"},
      {"measurement": "solubility", "setting": "[1]; organic solvent or mixture, Dimethyl sulfoxide", "result": "> 38", "unit": "mg/mL"},
      {"measurement": "solubility", "setting": "[1]; organic solvent or mixture, Ethanol", "result": "> 42", "unit": "mg/mL"},
      {"measurement": "solubility", "setting": "[1]; organic solvent or mixture, Ethyl acetate", "result": "> 36", "unit": "mg/mL"},
      {"measurement": "solubility", "setting": "[1]; organic solvent or mixture, Methanol", "result": "> 38", "unit": "mg/mL"},
      {"measurement": "solubility", "setting": "[1]; organic solvent or mixture, Methyl isobutyl ketone", "result": "> 42", "unit": "mg/mL"},
      {"measurement": "solubility", "setting": "[1]; organic solvent or mixture, Tetrahydrofuran", "result": "> 40", "unit": "mg/mL"},
      {"measurement": "solubility", "setting": "[1]; organic solvent or mixture, n-Heptane", "result": "7.6 to 23", "unit": "mg/mL"},
      {"measurement": "solubility", "setting": "[1]; Water", "result": "< 2", "unit": "mg/mL"},
      {"measurement": "inhibition at 10 µM", "setting": "TRPV1", "result": 22.5, "unit": "%"},
      {"measurement": "PWT", "setting": "SD rats", "result": "7.869 ± 2.846", "unit": "g"}
    ]}
  ]
}
